Experiments:
[1] = tested on: human solid and haematological cancer lines as well as primary patient-derived AML samples; conditions: cited from earlier work
BRD4-BD2 = BRD4-BD2 (Homo sapiens, UniProt O60885); test: BRD4 AlphaLISA assay, BRD4-BD2; format: binding; conditions: displacement of acetyl-histone H4 peptide (Lys5, 8, 12, 16)
Excerpt: (§1) This bead-based proximity assay is based on the competitive displacement of a histone peptide (acetyl-histone H4/Lys5, 8, 12, 16) from the human bromodomain [22].

BRD4-NUT = tested on: T1, BRD4-NUT; test: Immunofluorescence staining of NUT megadomains, Ty-82; format: cell-based, human
T1 construct: endogenous in cells; host or cells: Ty-82 NUT carcinoma cells
Experimental: Cells were seeded on four-well chamber slides (Merck Millipore, #PEZGS0416). After treatment, cells were fixed with 4% PFA (16% Solution, Thermo Fischer #28908 Paraformaldehyde, diluted 1:4 in PBS), permeabilised with 0,1% TX-100 (Sigma #93443, diluted in PBS). After blocking in blocking buffer (10% normal goat serum, Sigma #G9023–10ml, diluted in blocking solution: 2% BSA/PBS, Sigma #A7284–50ml, diluted 1:15 in PBS), the first antibody mAB rabbit anti-NUT 1:1000 (clone C52B1, Cell Signaling #3625) in blocking buffer was added, followed by incubation with the 2nd antibody goat anti-rabbit Alexa*488 1:1000 (Thermo Fisher, #A-11008) in blocking buffer in the dark. Cells were mounted with ProLong Gold Antifade Mountant with DAPI (Thermo Fisher, #P36931) and analysed using a Laser scanning microscope (LSM700). […]
Immunofluorescence staining of NUT megadomains on NC Ty-82 treated with BI with BI 894999 30nM for 1 h, then changed to 10 nM or 5 nM or 2.5 nM or control for 24 h.

Ki67 = test: IHC of 10326 xenograft tumours, Ki67; format: in vivo, mice; conditions: day 21, BI 894999 monotherapy 2 mg/kg
Experimental: Immunohistochemistry was performed on formalin-fixed, paraffin-embedded tumour tissue using antibodies against human Ki67(Cell Signaling #9027, 1:400 dilution), anti-human mitochondria (Abcam ab92824, 1:1000 dilution) and against endogenous NUT protein (Cell Signaling #3625, 1:50 dilution) used to detect NUT fusion proteins. Digital images of whole tissue sections were acquired using a Leica SCN400 histology scanner (Leica Microsystems). Ki67-positive index was evaluated using Halo Software V. 3.2 (Indica lab). Regions of interest (ROIs) within the tissue sections were first identified using Halo Software via machine learning technology across pathological samples and tissue control, within these ROIs, nuclei were detected and classified as positive or negative based on IHC staining thresholds.
Quantification of Ki67 staining in NC 10326 tumor sections after treatment with BI 894999, CCS1477, or the combination thereof.

HEXIM1 = test: Pharmacometrics (PK/PD) simulation; conditions: Supplement Fig. 6
Experimental: Pharmacometrics simulation for platelet counts (top) and plasma concentration (bottom) as a function of four different dosing regimens of BI 894999. Solid line of 10nM indicated the estimated plasma concentration needed to stimulate a maximum 2-fold change from baseline for HEXIM1.

14169 BRD4-NUT = test: Cell proliferation assay (Alamar readout), 14169; format: cell-based, human; conditions: Homo sapiens, 96h, read-out: geomean GI50
Experimental: The NUT Carcinoma cell line Ty-82 was purchased from JCRB Japan No. 1330 and cultivated in RPMI 1640 supplemented with 10% fetal calf serum (FCS). The NC cell lines 10–15, 14169 and 10326 were in-licensed from Christopher French, Brigham & Womens Hospital, Boston, and were cultivated in DMEM supplemented with glutamax and 10% FCS.
Viability assays were performed on 96-well flat-bottom microtiter plates and incubated with Alamar Blue solution (Invitrogen, Carlsbad, US-CA). The effects of drug combinations were analysed using the Bliss Independence Model.
Dose response curves (96h cell proliferation assay - Alamar readout) on four NC cell lines with BET inhibitor BI 894999. Yellow bar: readout t zero (before adding of compound). Green bar: DMSO control (max proliferation).
Dose response curves (96h cell proliferation assay - Alamar readout) on four NC cell lines with multiple BET inhibitors.

[2] = tested on: NC lines (Ty-82) versus AML cell lines (MV-4-11); test: Incucyte caspase-3/7 apoptosis / cell death analysis; format: cell-based, human; conditions: in contrast to AML cell lines, Supplementary Fig. S3
Experimental: Live-cell imaging was performed with the Incucyte® S3 Live-Cell Analysis System as described previously for Incucyte® Zoom.
Incucyte analysis. Ty-82 cells (NC) or MV-4-11 (AML) cells were treated with BI 894999 at the concentrations indicated and analyzed over time with the IncuCyte™Caspase-3/7 Apoptosis Assay Reagent (Essenbioscience Cat No 4440). Cell confluence (left) and green fluorescence as a measure of caspase 3/7 activation (right) were monitored for up to 7 days with images taken every 3 hours.

BRD4-BD1 = BRD4-BD1 (Homo sapiens, UniProt O60885); test: BRD4 AlphaLISA assay, BRD4-BD1; format: binding; conditions: displacement of acetyl-histone H4 peptide (Lys5, 8, 12, 16)
Excerpt: as §1

[3] = Phase I trial MTD and platelet counts (NCT02516553); format: in vivo; conditions: patients
Experimental: Schedule B (NCT02516553): daily oral treatment from Day 1 to Day 14 at 2.5 mg/day followed by a week-off in 3-week cycles. Schedule C (NCT02516553): one week-on, one week-off treatment, repeated every two weeks in 4-week cycles with, at each treatment week, a loading dose (6 mg) on Day 1 followed by a maintenance dose (3 mg per day) on the following 6 days.

[4] = PK analysis in mouse plasma; format: in vivo; conditions: CIEA NOG (NOD.Cg-Prkdc^scid Il2rg^tm1Sug/JicTac), po, mice, 2 mg/kg p.o.
Excerpt: PK analysis in mouse plasma. Oral treatment at the indicated doses. Sampling at the indicated timepoints.

For `CNc1nc(-c2nc3ccc(N4CCN(C)CC4)cc3n2Cc2ccccc2)cn2c(C)nnc12` [BI 894999], the GI50 values ([1]; AML cell lines) is given as “single-digit nM range”, the “fold more potent compared to other BET inhibitors (GSK525762, OTX015, JQ1)” value ([1]; cellular potency in large panels) is given as “at least 10 fold” and the IC50 (BRD4-BD2) is given as 41 ± 30 nM. The “time to detachment of BRD-NUT from chromatin” value (BRD4-NUT; 10–30 nM in Ty-82, 3–10 nM in 10326) was ≤ 30 min, the “concentration at which BRD4-NUT detaches from chromatin / is re-distributed” value (BRD4-NUT; Ty-82, 30 min treatment) was 10 to 30 nM and the “speckled staining (BRD-NUT bound to chromatin) after washout” value (BRD4-NUT; washout experiments) was “quickly restored”. For the same compound, the “cell proliferation as assessed by Ki67 levels” value (Ki67) was “reduced cell proliferation”, the “estimated plasma concentration needed to stimulate a maximum 2-fold change from baseline for HEXIM1” value (HEXIM1) was 10 nM and the GI50 (14169 BRD4-NUT) was 0.9 nM. For the same compound, the “fold higher compound concentrations required to undergo cell death” value [2] was > 100 fold, the IC50 (BRD4-BD1) was 5 ± 3 nM and the “tolerability as measured by platelet nadir counts” value ([3]; Schedule C compared to Schedule B at MTD, comparable 6-week cumulative dose (72 vs 70 mg)) was “better tolerability”. For the same compound, the thrombocytopenia events ([3]; Schedule C versus Schedule B at equivalent 6-week cumulative dose) was “less >Grade 3 thrombocytopenia events”, the “MTD, loading dose” value ([3]; Schedule C, Day 1) was 6 mg and the “MTD, maintenance dose” value ([3]; Schedule C, following 6 days) was 3 mg. It also gave a Cmax [4] of 10 nM.

— PMC9346113, “Therapeutic impact of BET inhibitor BI 894999 treatment: backtranslation from the clinic” (British Journal of Cancer, 2022)
